{"source": "patent US20190203409A1", "about": "“ANTIBACTERIAL REGENERATED CELLULOSIC FIBERS AND PROCESS OF PREPARATION THEREOF” (GRASIM INDUSTRIES LIMITED, priority 2016, published 2019)", "tested_on": "S. Aureus", "assay": "AATCC 147-2013 antibacterial test", "assay_type": "cell-based", "details": "0.5% concentration to weight of cellulose", "method": "An antibacterial agent is used in Standard VSF or Modal or Lyocell manufacturing process to improve antibacterial performance of fiber. A small amount of chemical DDAC (i.e. 0.05-1% on weight of cellulose fiber) is infused by the way of: pouring or spraying or soaking or coating or padding or dipping and the like on the fiber during fiber manufacturing process and then fibers were dried and finally packed into the bales. The resultant fiber was then evaluated for antibacterial performance in external biological laboratory as per standard test methods.", "data": [{"compound": "Oc1cc(Cl)ccc1Oc1ccc(Cl)cc1Cl", "note": "[Triclosan]", "values": [{"measurement": "antibacterial activity (in words)", "value": "did not demonstrate any antibacterial activity"}]}]}
